From US11000033B2, “Ketone or oxime compound, and herbicide” (NISSAN CHEMICAL CORPORATION, priority 2014, dated 2021) come the findings set out here.

Common to all, as to assay type: in vivo
One data set concerns Scirpus juncoides. Description: Test Example 2: herbicidal activity, application during weed generation in submerged conditions (symbol B). Conditions: Table 23; application herbicide amount 320 g/ha; grade 0-5 by criteria of Test Example 1. The gist of the method: (§1)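 Steps: fill pots with alluvial soil; add water to 4 cm depth; co-sow the three weeds; grow at 25° C. to 30° C. under glass; at 1–2 leaves, dose the floodwater with diluted emulsion; rate damage visually after 3 weeks.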

Data set [1] concerns Echinochloa crus-galli var. crus-galli. Description: Test Example 4: herbicidal effect by soil treatment (symbol H). Conditions: application herbicide amount 320 g/ha. Put shortly: (§2)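 Seeds were sown in sterilized diluvial soil, covered with about 1.5 cm of soil, and the soil surface was sprayed with a water-diluted emulsion of the compound at a predetermined rate. Plants grew in a greenhouse at 25° C. to 30° C.; effects were scored visually 3 weeks after application.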

The next data set has as its system Monochoria vaginalis. Put plainly: Test Example 2: herbicidal activity, application during weed generation in submerged conditions (symbol C). Conditions: Table 23; application herbicide amount 320 g/ha; grade 0-5 by criteria of Test Example 1. Put shortly: as §1
The next data set concerns Cyperus difformis. Description: Test Example 3: herbicidal effect by foliage application, Wagner pot (symbol E). The settings on record: application herbicide amount 320 g/ha. Put shortly:
(§3)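 Post-emergence, paddy-type test: seedlings 14 d old in shallow-flooded (0.1–0.5 cm) alluvial soil, 25–30 °C greenhouse. Emulsion diluted to target rate, sprayed on leaves. Read-out: visual effect on each species at 3 weeks, per set criteria.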

In data set [2] the test system is Echinochloa crus-galli var. crus-galli. Put plainly: Test Example 3: herbicidal effect by foliage application, Wagner pot (symbol H). The settings on record: application herbicide amount 320 g/ha. The gist of the method:
as §3

Another data set has as its system beet. Put plainly: Test Example 4: effect on crop by soil treatment (symbol f). The settings on record: application herbicide amount 320 g/ha. Put shortly:
(§4)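 Crop seed is sown in spots together with several weed species in a box of sterilized diluvial soil. It is covered by about 1.5 cm of soil and kept in a greenhouse held between 25° C. and 30° C.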

Data set [3] has as its system Apera spica-venti. Put plainly: Test Example 4: herbicidal effect by soil treatment (symbol L). The settings on record: application herbicide amount 320 g/ha. Put shortly:
as §2

Another data set has as its system Chenopodium album. Put plainly: Test Example 5: herbicidal effect by foliage application, plastic box (symbol O). Conditions: 320 g/ha, 3 weeks after application. Put shortly: (§5)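 Greenhouse foliar test: seedlings at 14 days, grown 25° C. to 30° C. in sterilized diluvial soil; compound applied as an aqueous dilution of an emulsion; response read 3 weeks after spraying.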

The next data set deals with rapeseed. Put plainly: Test Example 4: effect on crop by soil treatment (symbol g). Conditions: application herbicide amount 320 g/ha. The gist of the method:
as §4

For data set [4], the system named is directly sowed rice plant. Put plainly: Test Example 3: effect on crop by foliage application, Wagner pot (symbol b). Conditions: application herbicide amount 320 g/ha. The gist of the method:
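Alluvial soil in a 1/10000-are Wagner pot was flooded to a water depth of 0.1–0.5 cm. Echinochloa crus-galli var. crus-galli, Leptochloa chinensis, Cyperus difformis and rice were sown into it and grown in a greenhouse at 25–30 °C.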

The subject of a further data set is Stellaria media. Description: Test Example 5: herbicidal effect by foliage application, plastic box (symbol P). The settings on record: 320 g/ha, 3 weeks after application. The gist of the method:
as §5

In another data set the test system is transplanted rice plant. Description: Test Example 1: effect on crop, application before weed generation in submerged conditions (symbol a). The settings on record: application herbicide amount 320 g/ha. Put shortly: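 Rice at 2.5 leaf stage transplanted into submerged soil (4 cm depth) sown with three weed species; herbicide applied before weed emergence.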

The subject of data set [5] is Apera spica-venti. Description: Test Example 5: herbicidal effect by foliage application, plastic box (symbol L). Conditions: 320 g/ha, 3 weeks after application. The gist of the method: as §5
A further data set deals with Leptochloa chinensis. Description: Test Example 3: herbicidal effect by foliage application, Wagner pot (symbol D). Conditions: application herbicide amount 320 g/ha. The gist of the method:
as §3

A further data set deals with Abutilon theophrasti. Put plainly: Test Example 5: herbicidal effect by foliage application, plastic box (symbol M). Conditions: 320 g/ha, 3 weeks after application. The gist of the method:
as §5

For the compound `CON=C(C)CC1CC(O)=C(c2c(C)cc(OCc3ccncc3)cc2C)C1=O` (mixture of isomers) [6-053], the “Herbicidal effect grade, B: Scirpus juncoides” value (“Herbicidal effect grade, B” below) in the data set on Scirpus juncoides is 1 (Herbicidal ratio of 5% or higher and lower than 20%). The “H: Echinochloa crus-galli var. crus-galli, herbicidal effect grade” value in data set [1] was 2 (Herbicidal ratio of 20% or higher and lower than 40%). For the same compound, the “Herbicidal effect grade, C: Monochoria vaginalis” value (“Herbicidal effect grade, C” below) in the data set with Monochoria vaginalis is 2 (Herbicidal ratio of 20% or higher and lower than 40%). Also, the “herbicidal effect on E, grade 0-5” value in the data set on Cyperus difformis was 3 (Herbicidal ratio of 40% or higher and lower than 70%). For the same compound, the “herbicidal effect on H (Echinochloa crus-galli var. crus-galli), grade 0-5” value (shortened to “herbicidal effect on H”) in data set [2] was 5 (Herbicidal ratio of 90% or more (almost completely withered)). In addition, the “f: beet, effect on crop grade” value in the data set on beet is 0 (Herbicidal ratio of 5% or lower (almost no effect)). Moreover, the “L: Apera spica-venti, herbicidal effect grade” value in the data set on Apera spica-venti [3] is 0 (Herbicidal ratio of 5% or lower (almost no effect)); in the data set with Apera spica-venti [5] it was 4 (Herbicidal ratio of 70% or higher and lower than 90%). Moreover, in the data set with Chenopodium album, the “O: Chenopodium album, herbicidal effect grade” value was 0 (Herbicidal ratio of 5% or lower (almost no effect)). In the data set on rapeseed, the “g: rapeseed, effect on crop grade” value was 0 (Herbicidal ratio of 5% or lower (almost no effect)). For the same compound, the “effect on crop b (directly sowed rice plant), grade 0-5” value (shortened to “effect on crop b”) in data set [4] is listed as 5 (Herbicidal ratio of 90% or more (almost completely withered)). In the data set with Stellaria media, the “P: Stellaria media, herbicidal effect grade” value is listed as 0 (Herbicidal ratio of 5% or lower (almost no effect)). For the same compound, the “Effect grade on crop, a: transplanted rice plant” value (“Effect grade on crop” below) with transplanted rice plant was 3 (Herbicidal ratio of 40% or higher and lower than 70%). The “herbicidal effect on D (Leptochloa chinensis), grade 0-5” value (shortened to “herbicidal effect on D”) in the data set with Leptochloa chinensis is 5 (Herbicidal ratio of 90% or more (almost completely withered)). For the same compound, in the data set with Abutilon theophrasti, the “M: Abutilon theophrasti, herbicidal effect grade” value is reported as 0 (Herbicidal ratio of 5% or lower (almost no effect)).

As to `CON=C(C)CC1CC(O)=C(c2c(C)cc(-c3ccc(OC(F)(F)F)cc3)cc2C)C1=O` (mixture of isomers) [6-056], the “Herbicidal effect grade, B” value in the data set on Scirpus juncoides was 0 (Herbicidal ratio of 5% or lower (almost no effect)). In addition, in [1], the “H: Echinochloa crus-galli var. crus-galli, herbicidal effect grade” value was 0 (Herbicidal ratio of 5% or lower (almost no effect)). Also, the “Herbicidal effect grade, C” value in the data set on Monochoria vaginalis is listed as 0 (Herbicidal ratio of 5% or lower (almost no effect)). The “herbicidal effect on E, grade 0-5” value in the data set with Cyperus difformis is 3 (Herbicidal ratio of 40% or higher and lower than 70%). Further, the “herbicidal effect on H” value in data set [2] was 4 (Herbicidal ratio of 70% or higher and lower than 90%). The “f: beet, effect on crop grade” value in the data set with beet is 0 (Herbicidal ratio of 5% or lower (almost no effect)). For the same compound, in the data set on Apera spica-venti [3], the “L: Apera spica-venti, herbicidal effect grade” value was 0 (Herbicidal ratio of 5% or lower (almost no effect)). Also, the “O: Chenopodium album, herbicidal effect (criteria of Test Example 1)” value in the data set on Chenopodium album was 3 (Herbicidal ratio of 40% or higher and lower than 70%). In addition, in the data set on rapeseed, the “g: rapeseed, effect on crop grade” value is reported as 0 (Herbicidal ratio of 5% or lower (almost no effect)). In addition, the “effect on crop b” value in data set [4] is listed as 5 (Herbicidal ratio of 90% or more (almost completely withered)). Further, in the data set with Stellaria media, the “P: Stellaria media, herbicidal effect (criteria of Test Example 1)” value is given as 0 (Herbicidal ratio of 5% or lower (almost no effect)). For the same compound, in the data set on transplanted rice plant, the “Effect grade on crop” value is listed as 0 (Herbicidal ratio of 5% or lower (almost no effect)). In the data set on Apera spica-venti [5], the “L: Apera spica-venti, herbicidal effect (criteria of Test Example 1)” value is 3 (Herbicidal ratio of 40% or higher and lower than 70%). The “herbicidal effect on D” value with Leptochloa chinensis is given as 5 (Herbicidal ratio of 90% or more (almost completely withered)). For the same compound, in the data set on Abutilon theophrasti, the “M: Abutilon theophrasti, herbicidal effect (criteria of Test Example 1)” value is recorded as 0 (Herbicidal ratio of 5% or lower (almost no effect)).

In the case of `CON=C(C)CC1CC(OC(=O)COc2ccccc2)=C(c2c(C)cc(-c3ccc(Cl)cc3)cc2C)C1=O` (mixture of isomers) [6-061], in the data set on Scirpus juncoides, the “Herbicidal effect grade, B” value is 4 (Herbicidal ratio of 70% or higher and lower than 90%). For the same compound, the “H: Echinochloa crus-galli var. crus-galli, herbicidal effect grade” value in data set [1] is 5 (Herbicidal ratio of 90% or more (almost completely withered)). Further, the “Herbicidal effect grade, C” value with Monochoria vaginalis is 2 (Herbicidal ratio of 20% or higher and lower than 40%). Further, the “herbicidal effect on E, grade 0-5” value in the data set on Cyperus difformis was 5 (Herbicidal ratio of 90% or more (almost completely withered)). In addition, in [2], the “herbicidal effect on H” value is recorded as 5 (Herbicidal ratio of 90% or more (almost completely withered)). Moreover, the “f: beet, effect on crop grade” value with beet is 0 (Herbicidal ratio of 5% or lower (almost no effect)). Besides, the “L: Apera spica-venti, herbicidal effect grade” value with Apera spica-venti [3] is on record as 5 (Herbicidal ratio of 90% or more (almost completely withered)). Further, in the data set with Chenopodium album, the “O: Chenopodium album, herbicidal effect (criteria of Test Example 1)” value is 4 (Herbicidal ratio of 70% or higher and lower than 90%). In addition, the “g: rapeseed, effect on crop grade” value in the data set on rapeseed is 3 (Herbicidal ratio of 40% or higher and lower than 70%). Also, the “effect on crop b” value in data set [4] is recorded as 5 (Herbicidal ratio of 90% or more (almost completely withered)). Besides, the “P: Stellaria media, herbicidal effect (criteria of Test Example 1)” value with Stellaria media is 3 (Herbicidal ratio of 40% or higher and lower than 70%). The “Effect grade on crop” value in the data set with transplanted rice plant was 5 (Herbicidal ratio of 90% or more (almost completely withered)). The “L: Apera spica-venti, herbicidal effect (criteria of Test Example 1)” value with Apera spica-venti [5] is 5 (Herbicidal ratio of 90% or more (almost completely withered)). Also, the “herbicidal effect on D” value with Leptochloa chinensis is 5 (Herbicidal ratio of 90% or more (almost completely withered)). Further, the “M: Abutilon theophrasti, herbicidal effect (criteria of Test Example 1)” value in the data set on Abutilon theophrasti was 4 (Herbicidal ratio of 70% or higher and lower than 90%).

On to `CON=C(C)CC1CC(O)=C(c2c(C)cc(C3CC3)cc2C)C1=O` (stereo not drawn) [6-050], for which the “Herbicidal effect grade, B” value in the data set with Scirpus juncoides is listed as 0 (Herbicidal ratio of 5% or lower (almost no effect)). Further, in data set [1], the “H: Echinochloa crus-galli var. crus-galli, herbicidal effect grade” value was 4 (Herbicidal ratio of 70% or higher and lower than 90%). Also, the “Herbicidal effect grade, C” value in the data set with Monochoria vaginalis is recorded as 0 (Herbicidal ratio of 5% or lower (almost no effect)). For the same compound, in the data set with Cyperus difformis, the “herbicidal effect on E, grade 0-5” value was 5 (Herbicidal ratio of 90% or more (almost completely withered)). Moreover, the “herbicidal effect on H” value in data set [2] is given as 5 (Herbicidal ratio of 90% or more (almost completely withered)). For the same compound, the “f: beet, effect on crop grade” value with beet is reported as 0 (Herbicidal ratio of 5% or lower (almost no effect)). For the same compound, the “L: Apera spica-venti, herbicidal effect grade” value in the data set with Apera spica-venti [3] is 0 (Herbicidal ratio of 5% or lower (almost no effect)); with Apera spica-venti [5], 4 (Herbicidal ratio of 70% or higher and lower than 90%). In the data set on Chenopodium album, the “O: Chenopodium album, herbicidal effect grade” value was 3 (Herbicidal ratio of 40% or higher and lower than 70%). For the same compound, the “g: rapeseed, effect on crop grade” value in the data set on rapeseed was 2 (Herbicidal ratio of 20% or higher and lower than 40%). Moreover, in [4], the “effect on crop b” value was 5 (Herbicidal ratio of 90% or more (almost completely withered)). Besides, the “P: Stellaria media, herbicidal effect grade” value in the data set on Stellaria media was 3 (Herbicidal ratio of 40% or higher and lower than 70%). The “Effect grade on crop” value with transplanted rice plant is 4 (Herbicidal ratio of 70% or higher and lower than 90%). Moreover, the “herbicidal effect on D” value in the data set with Leptochloa chinensis is 5 (Herbicidal ratio of 90% or more (almost completely withered)). For the same compound, the “M: Abutilon theophrasti, herbicidal effect grade” value with Abutilon theophrasti was 0 (Herbicidal ratio of 5% or lower (almost no effect)).
